ChEMBL document CHEMBL6178017, “Intercepting the Downstream of the Estrogen Receptor Signaling Pathway: Discovery of a Potent and Efficient SRC-3 PROTAC Degrader for Overcoming Endocrine Resistance Breast Cancer” (J Med Chem, 2025)
Calls of active or inactive are those of the source. The calls are words filed in the database; no cut-off is given here.

How the values were obtained:
MCF7 [1] = experiment: Antiproliferative activity against human MCF7 cells assessed as inhibition of cell growth by CCK8 assay; assay type: functional, cell-based
MCF7 [2] = experiment: Antiproliferative activity against human MCF7 cells harboring ER-alpha Y537S mutant assessed as inhibition of cell growth by CCK8 assay; assay type: functional, cell-based
[3] = molecular target: T1, Protein cereblon/Nuclear receptor coactivator 3 (Homo sapiens, UniProt Q9Y6Q9+Q96SW2); experiment: PROTAC activity at CRBN/SRC-3 in human MCF7 cells assessed as induction of SRC-3 degradation at 1 uM incubated for 24 hrs by immunoblot analysis relative to control; assay type: cell-based
T1 sequence (Q96SW2 whole entry partner): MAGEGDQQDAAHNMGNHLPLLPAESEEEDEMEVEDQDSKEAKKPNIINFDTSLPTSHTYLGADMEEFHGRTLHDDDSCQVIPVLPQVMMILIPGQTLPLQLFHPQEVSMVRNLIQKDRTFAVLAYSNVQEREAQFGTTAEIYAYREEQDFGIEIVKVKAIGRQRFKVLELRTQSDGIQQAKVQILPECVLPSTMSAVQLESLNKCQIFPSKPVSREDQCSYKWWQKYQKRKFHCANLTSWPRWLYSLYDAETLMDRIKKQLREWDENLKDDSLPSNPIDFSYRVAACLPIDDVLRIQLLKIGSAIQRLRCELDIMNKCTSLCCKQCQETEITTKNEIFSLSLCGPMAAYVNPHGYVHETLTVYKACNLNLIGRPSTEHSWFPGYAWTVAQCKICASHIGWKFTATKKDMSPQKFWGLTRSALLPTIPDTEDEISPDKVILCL
T1 sequence (Q9Y6Q9 2-1424 limits assumed): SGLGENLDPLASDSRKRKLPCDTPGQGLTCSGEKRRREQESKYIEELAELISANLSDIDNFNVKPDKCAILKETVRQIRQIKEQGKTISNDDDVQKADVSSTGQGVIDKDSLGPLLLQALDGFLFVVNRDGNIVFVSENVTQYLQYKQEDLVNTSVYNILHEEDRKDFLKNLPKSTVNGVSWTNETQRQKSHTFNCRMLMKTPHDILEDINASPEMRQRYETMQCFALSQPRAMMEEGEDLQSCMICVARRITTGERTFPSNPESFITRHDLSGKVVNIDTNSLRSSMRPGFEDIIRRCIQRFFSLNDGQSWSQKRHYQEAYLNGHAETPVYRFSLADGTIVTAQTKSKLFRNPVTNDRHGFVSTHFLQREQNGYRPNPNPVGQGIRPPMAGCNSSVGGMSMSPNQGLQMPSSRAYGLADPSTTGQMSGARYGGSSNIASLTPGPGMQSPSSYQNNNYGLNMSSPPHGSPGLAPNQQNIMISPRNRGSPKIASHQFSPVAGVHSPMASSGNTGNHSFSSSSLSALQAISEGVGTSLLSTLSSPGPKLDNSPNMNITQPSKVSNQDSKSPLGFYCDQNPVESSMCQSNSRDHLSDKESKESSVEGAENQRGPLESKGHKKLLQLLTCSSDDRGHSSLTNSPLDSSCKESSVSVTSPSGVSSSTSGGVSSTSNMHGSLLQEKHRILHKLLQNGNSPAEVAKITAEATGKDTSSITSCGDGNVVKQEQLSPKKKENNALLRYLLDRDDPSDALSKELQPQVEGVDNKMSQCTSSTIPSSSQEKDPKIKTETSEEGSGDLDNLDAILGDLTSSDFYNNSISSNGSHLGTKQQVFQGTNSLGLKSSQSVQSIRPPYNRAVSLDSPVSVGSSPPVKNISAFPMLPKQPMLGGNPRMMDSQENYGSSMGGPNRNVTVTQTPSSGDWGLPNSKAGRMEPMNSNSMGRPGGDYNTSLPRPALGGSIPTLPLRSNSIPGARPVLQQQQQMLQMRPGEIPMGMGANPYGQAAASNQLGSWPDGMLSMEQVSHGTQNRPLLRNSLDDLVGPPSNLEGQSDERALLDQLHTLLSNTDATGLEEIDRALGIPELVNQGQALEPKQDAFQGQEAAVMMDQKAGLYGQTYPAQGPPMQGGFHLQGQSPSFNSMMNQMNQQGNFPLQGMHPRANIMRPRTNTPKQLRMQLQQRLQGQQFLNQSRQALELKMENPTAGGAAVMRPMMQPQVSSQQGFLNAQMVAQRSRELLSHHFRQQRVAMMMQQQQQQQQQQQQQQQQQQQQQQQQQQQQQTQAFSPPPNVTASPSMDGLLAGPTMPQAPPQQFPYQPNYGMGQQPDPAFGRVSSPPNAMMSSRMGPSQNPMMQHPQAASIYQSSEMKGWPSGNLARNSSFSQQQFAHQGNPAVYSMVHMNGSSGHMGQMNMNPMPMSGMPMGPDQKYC

MCF7 [4] = experiment: Antiproliferative activity against human MCF7 cells harboring ER-alpha D538G mutant assessed as inhibition of cell growth by CCK8 assay; assay type: functional, cell-based
[5] = Antiproliferative activity against tamoxifen-resistant human LCC2 cells assessed as inhibition of cell growth by CCK8 assay; assay type: functional, cell-based
[6] = molecular target: T1, Protein cereblon/Nuclear receptor coactivator 3; experiment: PROTAC activity at CRBN/SRC-3 in human MCF7 cells assessed as induction of ER-alpha degradation at 1 uM incubated for 24 hrs by immunoblot analysis relative to control; assay type: cell-based
[7] = molecular target: T2, von Hippel-Lindau disease tumor suppressor/Nuclear receptor coactivator 3 (Homo sapiens) (UniProt Q9Y6Q9+P40337); experiment: PROTAC activity at VHL/SRC-3 in human MCF7 cells assessed as induction of SRC-3 degradation at 1 uM incubated for 24 hrs by immunoblot analysis relative to control; assay type: cell-based
T2 sequence (P40337 whole entry, looked up): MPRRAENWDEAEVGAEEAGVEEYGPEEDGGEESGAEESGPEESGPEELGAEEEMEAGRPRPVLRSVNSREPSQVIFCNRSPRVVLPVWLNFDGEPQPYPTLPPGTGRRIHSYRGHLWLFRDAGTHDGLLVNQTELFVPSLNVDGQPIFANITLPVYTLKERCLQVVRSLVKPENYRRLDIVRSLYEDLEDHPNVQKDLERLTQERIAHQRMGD
T2 sequence (Q9Y6Q9 whole entry, looked up): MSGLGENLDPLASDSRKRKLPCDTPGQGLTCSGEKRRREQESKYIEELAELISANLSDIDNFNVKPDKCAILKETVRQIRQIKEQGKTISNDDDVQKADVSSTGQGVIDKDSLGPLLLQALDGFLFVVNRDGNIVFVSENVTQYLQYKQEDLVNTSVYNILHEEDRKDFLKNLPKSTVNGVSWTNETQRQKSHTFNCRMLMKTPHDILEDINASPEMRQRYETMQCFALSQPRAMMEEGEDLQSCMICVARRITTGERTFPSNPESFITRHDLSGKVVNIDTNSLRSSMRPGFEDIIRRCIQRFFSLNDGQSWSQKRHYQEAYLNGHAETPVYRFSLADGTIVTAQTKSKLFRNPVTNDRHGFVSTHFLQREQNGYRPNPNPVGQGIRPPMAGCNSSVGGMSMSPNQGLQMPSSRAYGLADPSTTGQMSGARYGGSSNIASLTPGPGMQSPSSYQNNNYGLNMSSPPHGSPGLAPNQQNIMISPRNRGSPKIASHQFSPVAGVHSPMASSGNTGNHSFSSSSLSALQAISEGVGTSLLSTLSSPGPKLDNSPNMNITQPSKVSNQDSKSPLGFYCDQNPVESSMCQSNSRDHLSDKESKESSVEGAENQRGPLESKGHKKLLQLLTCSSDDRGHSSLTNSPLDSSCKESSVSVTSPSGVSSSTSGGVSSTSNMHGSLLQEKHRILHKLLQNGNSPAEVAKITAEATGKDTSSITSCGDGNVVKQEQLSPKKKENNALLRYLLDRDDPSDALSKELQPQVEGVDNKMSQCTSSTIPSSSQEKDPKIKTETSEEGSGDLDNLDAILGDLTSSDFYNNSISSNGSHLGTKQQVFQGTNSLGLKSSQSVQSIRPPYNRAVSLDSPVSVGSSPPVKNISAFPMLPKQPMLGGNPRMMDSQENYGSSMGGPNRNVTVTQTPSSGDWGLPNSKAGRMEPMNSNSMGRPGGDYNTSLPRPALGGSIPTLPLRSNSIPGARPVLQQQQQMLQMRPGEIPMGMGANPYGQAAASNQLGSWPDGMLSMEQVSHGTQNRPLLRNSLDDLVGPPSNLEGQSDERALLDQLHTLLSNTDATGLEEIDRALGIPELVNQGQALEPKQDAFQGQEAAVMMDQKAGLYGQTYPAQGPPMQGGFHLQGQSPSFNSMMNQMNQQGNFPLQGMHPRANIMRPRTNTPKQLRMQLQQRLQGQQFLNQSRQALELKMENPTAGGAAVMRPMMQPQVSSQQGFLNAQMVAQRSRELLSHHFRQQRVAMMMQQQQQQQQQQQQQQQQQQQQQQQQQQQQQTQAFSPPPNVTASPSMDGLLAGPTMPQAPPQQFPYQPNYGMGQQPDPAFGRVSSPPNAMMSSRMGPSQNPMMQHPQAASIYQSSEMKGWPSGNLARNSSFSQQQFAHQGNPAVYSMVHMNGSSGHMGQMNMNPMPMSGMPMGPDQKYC

MCF-10A = experiment: Cytotoxicity against human MCF-10A cells assessed as cell growth by CCK-8 assay; assay type: toxicity, cell-based
[8] = molecular target: T2, von Hippel-Lindau disease tumor suppressor/Nuclear receptor coactivator 3 (Homo sapiens); experiment: PROTAC activity at VHL/SRC-3 in human MCF7 cells assessed as induction of […] degradation at 1 uM incubated for 24 hrs by immunoblot analysis relative to control; assay type: cell-based
[9] = test system: Tamoxifen-resistant LCC2 cell; experiment: Antitumor activity against tamoxifen-resistant human LCC2 cells xenografted in Balb/c mouse assessed as inhibition of tumor growth at 3 uM/Kg, ip administered once every 2 days for 23 days; assay type: functional, organism-based; conditions: time 23.0 day
LNCaP = experiment: Antiproliferative activity against human LNCaP cells assessed as inhibition of cell growth by CCK-8 assay; assay type: functional, cell-based
[10] = Induction of apoptosis in tamoxifen-resistant human LCC2 cells assessed as necrotic cells incubated for 48 hrs by AnnexinV-FITC/PI staining based flow cytometry (reference value: 1.16%); assay type: functional, Tamoxifen-resistant LCC2 cell
Mus musculus = experiment: In vivo PROTAC activity at CRBN/SRC-3 in Balb/c mouse xenografted with tamoxifen-resistant human LCC2 cells assessed as induction of SRC-3 degradation in tumor tissues at 5 uM/Kg, ip administered once every 2 days for 23 days and measured on day 25 by western blot analysis; assay type: functional, organism-based; conditions: time 25.0 day
MCF7 [11] = experiment: Induction of ER-alpha degradation in human MCF7 cells at 1 uM incubated for 24 hrs by immunoblot analysis relative to control; assay type: cell-based
[12] = Induction of apoptosis in tamoxifen-resistant human LCC2 cells assessed as viable cells incubated for 48 hrs by AnnexinV-FITC/PI staining based flow cytometry (reference value: 88.09%); assay type: functional, Tamoxifen-resistant LCC2 cell
[13] = Induction of apoptosis in tamoxifen-resistant human LCC2 cells assessed as early apoptotic cells incubated for 48 hrs by AnnexinV-FITC/PI staining based flow cytometry (reference value: 5.92%); assay type: functional, Tamoxifen-resistant LCC2 cell
[14] = Induction of apoptosis in tamoxifen-resistant human LCC2 cells assessed as late apoptotic cells incubated for 48 hrs by AnnexinV-FITC/PI staining based flow cytometry (reference value: 4.83%); assay type: functional, Tamoxifen-resistant LCC2 cell
MCF7 [15] = experiment: Induction of SRC-3 degradation in human MCF7 cells at 1 uM incubated for 24 hrs by immunoblot analysis relative to control; assay type: cell-based
[16] = molecular target: T1, Protein cereblon/Nuclear receptor coactivator 3; experiment: PROTAC activity at CRBN/SRC-3 in tamoxifen-resistant human LCC2 cells assessed as maximal induction of SRC-3 degradation at 1 uM incubated for 36 hrs by immunoblot analysis; assay type: cell-based; conditions: Tamoxifen-resistant LCC2 cell
[17] = molecular target: T1, Protein cereblon/Nuclear receptor coactivator 3; experiment: PROTAC activity at CRBN/SRC-3 in human MCF7 cells assessed as maximal induction of SRC-3 degradation at 1 uM incubated for 36 hrs by immunoblot analysis; assay type: cell-based
[18] = Half life of the compound in human plasma by LC-MS/MS analysis; assay type: ADME, cell-free
[19] = Metabolic stability of the compound in human plasma measured after 2 hrs by LC-MS/MS analysis; assay type: ADME, cell-free; conditions: read-out: Stability

| Compound | IC50 (MCF7 [1]) [µM] | IC50 (MCF7 [2]) [µM] | Activity [3] | IC50 (MCF7 [4]) [µM] | IC50 [5] [µM] | Activity [6] | other results |
| --- | --- | --- | --- | --- | --- | --- | --- |
| C/C(=N\Nc1nc2ccccc2n1C1CN(C(=O)C2CN(c3cccc4c3C(=O)N(C3CCC(=O)NC3=O)C4=O)C2)C1)c1ccccn1 (stereo not drawn) | 8.24 | 19.1 | inactive | 11.8 | 14.8 | 5% | – |
| C/C(=N\Nc1nc2ccccc2n1CC1CN(c2ccc3c(c2)C(=O)N(C2CCC(=O)NC2=O)C3=O)C1)c1ccccn1 (stereo not drawn) | 0.37 | 0.32 | inactive | 0.29 | 3.11 | 15% | – |
| C/C(=N\Nc1nc2ccccc2n1CC1CCN(C(=O)CCCCCCCNc2cccc3c2CN(C2CCC(=O)NC2=O)C3=O)CC1)c1ccccn1 (stereo not drawn) | 0.84 | 0.93 | 32% | 1.26 | 5.03 | 39% | – |
| C/C(=N\Nc1nc2ccccc2n1CCNC(=O)CCCCCCCCCCN[C@H](C(=O)N1C[C@H](O)C[C@H]1C(=O)N[C@@H](C)c1ccc(-c2scnc2C)cc1)C(C)(C)C)c1ccccn1 | 0.08 | 0.16 | – | 0.41 | 1.06 | – | Activity [7]: 62%; Activity (MCF-10A): Non-toxic; Activity [8]: 62% |
| C/C(=N\Nc1nc2ccccc2n1CCNC(=O)CCCCCN[C@H](C(=O)N1C[C@H](O)C[C@H]1C(=O)N[C@@H](C)c1ccc(-c2scnc2C)cc1)C(C)(C)C)c1ccccn1 | 1.59 | 2.75 | – | 2.53 | 7.14 | – | Activity [7]: 8%; Activity (MCF-10A): Non-toxic; Activity [8]: 15% |
| CC/C(=C(\c1ccccc1)c1ccc(OCCN(C)C)cc1)c1ccccc1 | – | – | – | – | – | – | Activity [9]: inactive |
| C/C(=N\Nc1nc2ccccc2n1CCNC(=O)CCCCCCCCN[C@H](C(=O)N1C[C@H](O)C[C@H]1C(=O)N[C@@H](C)c1ccc(-c2scnc2C)cc1)C(C)(C)C)c1ccccn1 | 0.06 | 0.15 | – | 0.36 | 0.75 | – | Activity [7]: 68%; IC50 (LNCaP): 1.43 µM; Activity (MCF-10A): Non-toxic; Activity [8]: 65% |
| C/C(=N\Nc1nc2ccccc2n1CCNC(=O)CCCCCCCN[C@H](C(=O)N1C[C@H](O)C[C@H]1C(=O)N[C@@H](C)c1ccc(-c2scnc2C)cc1)C(C)(C)C)c1ccccn1 | 0.52 | 0.36 | – | 0.45 | 1.94 | – | Activity [7]: 56%; Activity (MCF-10A): Non-toxic; Activity [8]: 38% |
| C/C(=N\Nc1nc2ccccc2n1CC1CCN(c2ccc3c(c2)C(=O)N(C2CCC(=O)NC2=O)C3=O)CC1)c1ccccn1 (stereo not drawn) | 1.13 | 0.36 | 28% | 1.52 | 5.1 | 34% | – |
| C/C(=N\Nc1nc2ccccc2n1CC1CN(c2cccc3c2C(=O)N(C2CCC(=O)NC2=O)C3=O)C1)c1ccccn1 (stereo not drawn) | 2.97 | 0.13 | 15% | 0.56 | 6.28 | 26% | – |
| C[C@]12CC[C@@H]3c4ccc(O)cc4C[C@@H](CCCCCCCCC[S+]([O-])CCCC(F)(F)C(F)(F)F)[C@H]3[C@@H]1CC[C@@H]2O (stereo partly drawn) [FULVESTRANT] | 0.22 | 6.15 | – | 0.58 | 0.47 | – | Activity [10]: 3.06%; Activity (Mus musculus): inactive; Activity (MCF7 [11]): 86%; Activity [12]: 69.81%; Activity [13]: 15.07%; Activity [14]: 12.06%; Activity (MCF7 [15]): inactive |
| C/C(=N\Nc1nc2ccccc2n1C1CN(C2CCN(c3cccc4c3C(=O)N(C3CCC(=O)N(C)C3=O)C4=O)CC2)C1)c1ccccn1 (stereo not drawn) | – | – | – | – | – | – | Activity [16]: inactive; Activity [17]: inactive |
| C/C(=N\Nc1nc2ccccc2n1C1CN(C(=O)C2CCN(c3cccc4c3C(=O)N(C3CCC(=O)NC3=O)C4=O)CC2)C1)c1ccccn1 (stereo not drawn) | 4.88 | 0.75 | 29% | 1.73 | 5.85 | 15% | – |
| C/C(=N\Nc1nc2ccccc2n1CC1CCN(CC(=O)N[C@H](C(=O)N2C[C@H](O)C[C@H]2C(=O)N[C@@H](C)c2ccc(-c3scnc3C)cc2)C(C)(C)C)CC1)c1ccccn1 | 0.69 | 0.94 | – | 0.69 | 2.76 | – | Activity [7]: 21%; Activity (MCF-10A): Non-toxic; Activity [8]: 10% |
| C/C(=N\Nc1nc2ccccc2n1C1CN(c2ccc3c(c2)C(=O)N(C2CCC(=O)NC2=O)C3=O)C1)c1ccccn1 (stereo not drawn) | 0.32 | 0.68 | 10% | 0.96 | 4.94 | inactive | – |
| C/C(=N\Nc1nc2ccccc2n1CCNC(=O)CN1CCC2(CC1)CCN(c1ccc3c(c1)C(=O)N(C1CCC(=O)NC1=O)C3=O)CC2)c1ccccn1 (stereo not drawn) | 5.59 | 7.2 | inactive | 6.99 | 7.99 | inactive | – |
| C/C(=N\Nc1nc2ccccc2n1C)c1ccccn1 | 0.47 | 0.004 | – | 0.77 | 0.6 | – | half-life [18]: 2.17 h; remaining at 2 h [19]: > 50%; Activity (MCF7 [11]): 86%; Activity (MCF7 [15]): 53% |
| CC/C(=C(\c1ccc(O)cc1)c1ccc(OCCN(C)C)cc1)c1ccccc1 [AFIMOXIFENE] | 0.38 | 18.8 | – | 8.57 | 26.5 | – | – |
| C/C(=N\Nc1nc2ccccc2n1CCNC(=O)C1CC2(CCN(c3ccc4c(c3)C(=O)N(C3CCC(=O)NC3=O)C4=O)CC2)C1)c1ccccn1 (stereo not drawn) | 2.94 | 1.06 | 5% | 1.11 | 8.63 | inactive | – |
| CCN(CC)CCOC(=O)c1ccc(N)cc1 [PROCAINE] | – | – | – | – | – | – | half-life [18]: 0.0303 h |
| C/C(=N\Nc1nc2ccccc2n1CCNC(=O)CCCCCCN[C@H](C(=O)N1C[C@H](O)C[C@H]1C(=O)N[C@@H](C)c1ccc(-c2scnc2C)cc1)C(C)(C)C)c1ccccn1 | 0.47 | 0.83 | – | 1.04 | 3.7 | – | Activity [7]: 62%; Activity (MCF-10A): Non-toxic; Activity [8]: 43% |
| C/C(=N\Nc1nc2ccccc2n1C1CN(c2cccc3c2C(=O)N(C2CCC(=O)NC2=O)C3=O)C1)c1ccccn1 (stereo not drawn) | 9.39 | 0.1 | 17% | 0.52 | 3.36 | 16% | – |
| C/C(=N\Nc1nc2ccccc2n1CCNC(=O)CCCCCCCCCN[C@H](C(=O)N1C[C@H](O)C[C@H]1C(=O)N[C@@H](C)c1ccc(-c2scnc2C)cc1)C(C)(C)C)c1ccccn1 | 0.09 | 0.13 | – | 0.35 | 1.11 | – | Activity [7]: 63%; Activity (MCF-10A): Non-toxic; Activity [8]: 61% |
| C/C(=N\Nc1nc2ccccc2n1CCNC(=O)CN1CCC(CN2CCN(c3ccc4c(c3)C(=O)N(C3CCC(=O)NC3=O)C4=O)CC2)CC1)c1ccccn1 (stereo not drawn) | 1.23 | 0.5 | 23% | 0.85 | 8.74 | 30% | – |
